In the Kinase Knowledgebase extract (Sharma et al. 2016) one finds IC50 data, which are given here for 8 compounds.

One test addresses PIK3CA (human) (UniProt P42336). Put plainly: Assessment of PIK3CA Kinase Activity.
For a further test, the target named is PIK3CB (Human) (UniProt P42338). Put plainly: Assessment of PIK3CB Kinase Activity.
The target of another test is PIK3CD (Human) (UniProt O00329). As to the kind of experiment: Assessment of PIK3CD Kinase Activity.
PIK3CD (Human), sequence (O00329 whole entry, looked up): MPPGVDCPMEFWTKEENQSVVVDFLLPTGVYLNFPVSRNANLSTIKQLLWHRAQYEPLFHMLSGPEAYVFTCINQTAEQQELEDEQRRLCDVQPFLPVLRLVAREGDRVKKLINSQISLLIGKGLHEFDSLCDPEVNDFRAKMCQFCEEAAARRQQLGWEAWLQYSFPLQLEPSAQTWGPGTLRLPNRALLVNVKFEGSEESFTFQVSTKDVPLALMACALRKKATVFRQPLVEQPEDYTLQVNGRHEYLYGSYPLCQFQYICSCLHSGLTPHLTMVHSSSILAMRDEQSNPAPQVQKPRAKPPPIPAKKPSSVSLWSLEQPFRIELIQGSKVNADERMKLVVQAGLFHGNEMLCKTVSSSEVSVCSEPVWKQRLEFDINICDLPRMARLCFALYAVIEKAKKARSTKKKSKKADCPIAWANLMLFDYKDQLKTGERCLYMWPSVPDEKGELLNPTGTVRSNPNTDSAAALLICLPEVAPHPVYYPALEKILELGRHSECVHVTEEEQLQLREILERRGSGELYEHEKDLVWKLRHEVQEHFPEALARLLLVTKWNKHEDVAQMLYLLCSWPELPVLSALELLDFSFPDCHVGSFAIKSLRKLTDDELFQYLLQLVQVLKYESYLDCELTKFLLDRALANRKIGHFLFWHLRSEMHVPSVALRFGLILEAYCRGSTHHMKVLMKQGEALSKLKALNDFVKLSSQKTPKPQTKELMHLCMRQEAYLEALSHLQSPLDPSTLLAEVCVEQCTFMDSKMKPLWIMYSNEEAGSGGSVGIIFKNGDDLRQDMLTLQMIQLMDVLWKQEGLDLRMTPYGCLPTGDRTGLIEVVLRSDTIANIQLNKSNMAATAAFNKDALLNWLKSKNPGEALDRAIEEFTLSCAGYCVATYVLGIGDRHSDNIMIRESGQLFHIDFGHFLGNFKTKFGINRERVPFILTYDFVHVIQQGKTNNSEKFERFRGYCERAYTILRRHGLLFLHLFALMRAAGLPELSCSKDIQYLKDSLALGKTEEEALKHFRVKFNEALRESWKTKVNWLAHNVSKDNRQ

PIK3CA (human), sequence (P42336 whole entry, looked up): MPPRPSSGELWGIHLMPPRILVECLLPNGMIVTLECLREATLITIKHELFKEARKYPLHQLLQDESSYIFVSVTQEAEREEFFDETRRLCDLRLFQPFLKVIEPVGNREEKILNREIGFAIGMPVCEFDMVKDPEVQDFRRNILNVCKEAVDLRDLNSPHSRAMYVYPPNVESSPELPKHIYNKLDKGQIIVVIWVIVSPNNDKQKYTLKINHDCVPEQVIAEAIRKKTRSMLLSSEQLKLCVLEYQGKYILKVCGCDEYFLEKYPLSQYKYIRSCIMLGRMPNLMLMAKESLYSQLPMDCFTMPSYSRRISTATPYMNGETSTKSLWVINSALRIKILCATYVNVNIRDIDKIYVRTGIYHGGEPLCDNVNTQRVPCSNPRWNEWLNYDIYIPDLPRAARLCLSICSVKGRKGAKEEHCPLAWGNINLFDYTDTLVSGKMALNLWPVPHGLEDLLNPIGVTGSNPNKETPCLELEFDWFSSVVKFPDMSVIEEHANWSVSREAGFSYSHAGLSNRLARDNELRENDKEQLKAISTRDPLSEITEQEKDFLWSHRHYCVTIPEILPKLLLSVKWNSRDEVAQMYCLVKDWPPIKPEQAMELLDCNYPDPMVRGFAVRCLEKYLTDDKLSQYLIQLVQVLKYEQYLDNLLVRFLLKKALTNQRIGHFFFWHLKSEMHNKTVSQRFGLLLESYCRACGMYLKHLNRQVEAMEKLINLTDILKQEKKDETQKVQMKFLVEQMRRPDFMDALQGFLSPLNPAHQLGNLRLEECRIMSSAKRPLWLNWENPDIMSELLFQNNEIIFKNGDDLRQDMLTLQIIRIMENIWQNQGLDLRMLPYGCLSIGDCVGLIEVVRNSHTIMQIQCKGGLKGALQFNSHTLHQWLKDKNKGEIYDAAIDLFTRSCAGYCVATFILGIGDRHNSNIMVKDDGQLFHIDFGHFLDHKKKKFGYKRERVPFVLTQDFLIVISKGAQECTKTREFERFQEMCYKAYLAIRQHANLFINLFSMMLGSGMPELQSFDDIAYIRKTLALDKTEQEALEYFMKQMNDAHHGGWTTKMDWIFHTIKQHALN
PIK3CB (Human), sequence (P42338 whole entry, looked up): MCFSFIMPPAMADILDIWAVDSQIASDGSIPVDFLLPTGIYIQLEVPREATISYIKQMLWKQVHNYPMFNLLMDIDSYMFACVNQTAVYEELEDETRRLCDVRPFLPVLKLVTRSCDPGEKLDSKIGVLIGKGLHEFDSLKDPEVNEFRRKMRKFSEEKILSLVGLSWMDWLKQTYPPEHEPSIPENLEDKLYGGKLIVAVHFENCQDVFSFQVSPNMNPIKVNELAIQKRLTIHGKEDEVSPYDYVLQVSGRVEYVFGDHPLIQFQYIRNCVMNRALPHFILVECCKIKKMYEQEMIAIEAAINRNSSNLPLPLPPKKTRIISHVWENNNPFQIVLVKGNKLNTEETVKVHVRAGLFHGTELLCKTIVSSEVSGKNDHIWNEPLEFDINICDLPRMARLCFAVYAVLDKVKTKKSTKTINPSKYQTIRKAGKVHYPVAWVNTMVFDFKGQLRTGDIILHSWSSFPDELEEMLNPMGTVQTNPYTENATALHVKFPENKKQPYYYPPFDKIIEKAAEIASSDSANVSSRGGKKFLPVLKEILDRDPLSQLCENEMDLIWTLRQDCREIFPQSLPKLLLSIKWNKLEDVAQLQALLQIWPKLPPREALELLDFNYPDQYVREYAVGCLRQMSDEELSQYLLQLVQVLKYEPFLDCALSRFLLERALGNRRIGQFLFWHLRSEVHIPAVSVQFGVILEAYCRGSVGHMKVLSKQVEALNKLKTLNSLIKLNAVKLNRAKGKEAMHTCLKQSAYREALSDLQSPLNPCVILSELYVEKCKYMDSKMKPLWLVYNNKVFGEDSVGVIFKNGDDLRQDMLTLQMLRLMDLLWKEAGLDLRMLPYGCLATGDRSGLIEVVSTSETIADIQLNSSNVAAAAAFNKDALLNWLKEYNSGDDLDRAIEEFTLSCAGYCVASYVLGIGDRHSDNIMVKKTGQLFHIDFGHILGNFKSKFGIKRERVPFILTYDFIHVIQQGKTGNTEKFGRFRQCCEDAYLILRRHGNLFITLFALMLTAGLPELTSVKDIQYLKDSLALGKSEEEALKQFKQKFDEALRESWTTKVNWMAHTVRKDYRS

For orientation: IC50 means the concentration that gives 50% inhibition. Read a high IC50 as lower potency. Turning to `CCc1ncc(-c2ccc3ncc4c(c3c2)n(-c2cn(C)nc2C)c(=O)n4C)cc1OC(C)C`, the IC50 against PIK3CA (human) is 41 nM; against PIK3CB (Human), 73 nM; at PIK3CD (Human), 18 nM.
For `Cn1cc(-n2c(=O)n(C)c3cnc4ccc(-c5cncc(C(C)(C)O)c5)cc4c32)c(Cl)n1`, the values for the IC50 at PIK3CA (human), at PIK3CB (Human) and at PIK3CD (Human) were 8 nM, 5 nM and 5 nM, respectively.
For the compound `CCNc1cc(-c2ccc3ncc4c(c3c2)n(-c2c(C)noc2C)c(=O)n4C)cnc1Cl`, the results for the IC50 on PIK3CA (human), against PIK3CB (Human) and against PIK3CD (Human) were 139 nM, 101 nM and 22 nM, respectively.
For `CCn1cc(-n2c(=O)n(C)c3cnc4ccc(-c5cnc(C)c(OC(C)C)c5)cc4c32)c(C)n1` the same measures were 4 nM, 30 nM and 5 nM.
On to `CCn1cc(-n2c(=O)n(C)c3cnc4ccc(-c5ccc(-n6cccn6)cc5)cc4c32)c(C)n1`, for which the half-maximal inhibitory concentration (IC50) on PIK3CA (human) stood at 27 nM; against PIK3CD (Human), 75 nM.
On to `COCc1ncc(-c2ccc3ncc4c(c3c2)n(-c2cn(C)nc2Cl)c(=O)n4C)cc1OC`, for which the IC50 on PIK3CA (human) stood at 15 nM; against PIK3CB (Human), 24 nM; at PIK3CD (Human) it was 5 nM.
For `COCc1cc(-c2ccc3ncc4c(c3c2)n(-c2cn(C)nc2Cl)c(=O)n4C)cnc1N` the same measures were 9 nM, 7 nM and 3 nM.
Regarding `CCNC(=O)c1cc(-c2ccc3ncc4c(c3c2)n(-c2c(C)nn(C)c2C)c(=O)n4C)cnc1NC`, the concentration for half-maximal inhibition (IC50) against PIK3CA (human) was determined as 81 nM; against PIK3CB (Human), 603 nM; against PIK3CD (Human), 39 nM.
